Square brackets hold non-standard residues; d marks the D form. Peptide text beside a SMILES is read from it. * marks the point of attachment. Sta = CC(C)C[C@H](N)[C@@H](O)CC(=O)O; AMC = Cc1cc(=O)oc2cc(N*)ccc12; Isovaleryl = CC(C)CC(=O)*; Cbz = O=C(OCc1ccccc1)*
Assays:
rVX-4 [1] = conditions: E-64 1 μM, in presence of pepstatin A, pH 5.0-7.0, rVX-4 50 nM, 3 h at 37° C.
Description: Recombinant PvPMs expressed in E. coli cells were purified by Ni-NTA chromatography (Qiagen) and refolded as described above. rVX-4 (50 nM) was incubated with PvPMs (20 μg each) in 100 mM sodium acetate (pH 5.0-5.5), 100 mM sodium phosphate (pH 6.0-6.5), or 100 mM Tris-HCl (pH 7.0-7.5) supplemented with 10 mM DTT for 3 h. The experiments were also performed in the presence of E-64 (1 μM) and/or pepstatin A (10 μM, Sigma-Aldrich).
The inventors examined possible roles for VX-4 during maturation of recombinant PvPM4 (rPvPM4), which was expressed in E. coli as above, and the results are shown in FIG. 5(A). […] Recombinant PvPM 4 (20 μg) was incubated with rVX-4 (50 nM) supplemented with 10 mM DTT at different pH values with or without pepstatin A (PepA, 10 μM) or E-64 (1 μM) for 3 h at 37° C. The reactants were analyzed by 12% SDS-PAGE.

rVX-4 [2] = conditions: rVX-4 1 μM, pH 5.5, 6.5, 7.5, 30 min room temperature, substrate Z-LR-MCA
Description: The optimal pH was assessed in 100 mM sodium acetate (pH 4.5-5.5), 100 mM sodium phosphate (pH 6.0-6.5) and 100 mM Tris-HCl (pH 7.0-8.5). The enzymes (50 nM) were added to each buffer supplemented with 10 mM DTT and 5 μM Z-L-phenylalanyl-L-arginine 4-methyl-coumaryl-7-amide (Z-FR-MCA), Z-leucyl-L-arginine-MCA (Z-LR-MCA), or Z-L-arginyl-L-arginine 4-methyl-coumaryl-7-amide (Z-RR-MCA) (Peptide International). The appropriate buffers were separately employed as controls at each pH. Enzyme activity was measured as described above. The effects of reducing agents were examined under various concentrations of GSH, and pH stability was examined at pH 5.0 and 8.0 by incubating rVX-4 at 37° C. in the appropriate buffer.
Residual activities (%) were determined using Z-LR-MCA as a substrate.

rVX-4 [3] = conditions: fully processed 28 kDa rVX-4
Description: The purified rVX-4 was refolded and activated, and aliquots collected every 30 min were analyzed by 12% SDS-PAGE with Coomassie staining (left). The proteolytic activity of fully processed rVX-4 was analyzed by a gelatin gel-zymogram (right).
For activity gel electrophoresis, the obtained refolded rVX-4 was mixed with SDS-PAGE sample buffer lacking 2-mercaptoethanol and subjected to 12% SDS-PAGE co-polymerized with 0.1% gelatin. The gel was washed with 2% Triton X-100 (30 min), incubated overnight with 100 mM sodium acetate (pH 5.5) containing 10 mM DTT at 37° C. and stained with Coomassie Blue.

VX-4 [4] = assay: Determination of pH optimum of enzyme activity against peptide substrates; type: biochemical, Plasmodium vivax; conditions: 5 μM substrate, 10 mM DTT, 37° C., pH 4.5-8.5
Description: Enzyme activity was measured as described above.
FIG. 3(C) relates to determination of pH optimum. […] Activity was measured at 37° C. each against Z-FR-MCA (▪), Z-LR-MCA (∘), and Z-RR-MCA (●). Maximal activity was presented as 100%. As shown in FIG. 3(C), the enzymatic activity was highest at pH 5.5. The pH-optimum was substantially different with a substrate containing a basic AA at P2 (Z-RR-MCA) with maximal activity at pH 6.5, and activity seen above pH 8.

VX-4 [5] = assay: Substrate hydrolysis kinetics for vivapains (peptide-MCA substrates); type: biochemical, Plasmodium vivax
Description: (§1) Cysteine protease activity was ascertained by the hydrolysis of benzyloxycarbonyl-L-leucyl-L-arginine 4-methyl-coumaryl-7-amide (Z-LR-MCA) (Peptide International, Louisville, Ky.). Enzyme (xVX, 30 μl; 200 nM) was added to 100 mM sodium acetate (220 μl, pH 5.5) containing 5 μM Z-LR-MCA and 10 mM DTT. The release of fluorescence was assessed at excitation and emission wavelengths of 355 nm and 460 nm with a SpectraMAX Gemini fluorometer (Molecular Devices, Sunnyvale, Calif.).
(§2) The release of MCA was monitored over 10 min at room temperature as described above. Activities were compared as fluorescence over time. The kinetic constants Km and Vmax were determined using GraphPad software.

VX-2 = assay: as above; type: biochemical, Plasmodium vivax; conditions: pH 5.5, 6.5, 7.5
Description: as §1, §2

VX-3 = assay: as above; type: biochemical, Plasmodium vivax; conditions: pH 5.5, 6.5, 7.5
Description: as §1, with “Enzyme (xVX, 30 μl; 200 nM) was added to 100 mM sodium acetate (220 μl, pH 5.5) containing 5 μM Z-LR-MCA and 10 mM DTT.” left out
as §2

[6] = system: VX-4 mutants containing E180A; assay: Activity of mutant VX-4s against peptide substrates; type: biochemical, Plasmodium vivax; conditions: 100 mM Tris-HCl pH 7.5, 10 mM DTT, 37° C.
Description: Site-directed mutagenesis was performed using a QuickChange II Site-Directed Mutagenesis Kit (Stratagene, Calif.). A pair of complementary primers with 39 bases was designed and a mutation to replace Ala90 to Ile (A90I), Gly154 to Ser (G154S) or Glu180 to Ala (E180A) was placed in the middle of the primers, as follows: […]
Parental DNA inserted in pQE-30 (Qiagen, Calif.) as prepared in Example 2 was amplified using Pfu Ultra HF DNA polymerase with these primers for 16 cycles in a DNA thermal cycler (Perkin-Elmer). After digestion of the parental DNA with Dpn I, the amplified DNA with nucleotide substitution was incorporated and transformed into E. coli XL1-Blue (Stratagene). The mutations were verified by DNA sequencing. Double and triple point mutagenesis of A90I, G154S, and E180A were also done as described above. Each mutant plasmid was transformed into competent E. coli M15 (pREP4) cells (Qiagen). Each recombinant protein was individually expressed, purified and refolded as described above.
In assays against peptide substrates, all of the mutants harboring A901 and G154S by single or multiple substitutions maintained the pH-dependent substrate specificity of wild-type VX-4. Conversely, those containing E180A lost activity against Z-RR-MCA at pH 7.5 (FIG. 4(C)). […]

[7] = system: P. vivax plasmepsin 4 (PvPM4); assay: Autocatalytic processing of recombinant PvPM4 (SDS-PAGE); type: biochemical, Plasmodium vivax; conditions: pepstatin A 10 μM, 3 h at 37° C.
Description: The reactants were analyzed by 12% SDS-PAGE.

[8] = rVX-4, pH 7.5 compared with pH 5.5

CC(C)C[C@H](NC(=O)[C@H]1O[C@@H]1C(=O)O)C(=O)NCCCCN=C(N)N (relative stereo) [E-64, trans-epoxysuccinyl-L-leuciloamido-(4-guanidino) butane]
effect on rVX-4 cleavage of rPvPM4 (rVX-4 [1]): specifically and significantly inhibited | E-64 concentration needed to inhibit rVX-4 depending on pH (rVX-4 [2]): increased concentrations of E-64 to inhibit rVX-4 at higher pH | inhibition of protease activity in gelatin-gel electrophoresis (rVX-4 [3]): completely inhibited

Cc1cc(=O)oc2cc(NC(=O)[C@H](CCCNC(=N)N)NC(=O)[C@H](CC(C)C)NC(=O)OCc3ccccc3)ccc12 [Z-LR-MCA, benzyloxycarbonyl-L-leucyl-L-arginine 4-methyl-coumaryl-7-amide]
pH of maximal enzyme activity (VX-4 [4]): 5.5 | decrease of kcat/Km at pH 7.5 (VX-4 [5]; [8]): 5.6 fold

Cc1cc(=O)oc2cc(NC(=O)[C@H](CCCNC(=N)N)NC(=O)[C@H](CCCNC(=N)N)NC(=O)OCc3ccccc3)ccc12 [Z-RR-MCA, benzyloxycarbonyl-L-arginyl-L-arginine 4-methyl-coumaryl-7-amide] (Cbz-Arg-Arg-{AMC})
pH of maximal enzyme activity (VX-4 [4]): 6.5 | hydrolysis by rVX-2 (VX-2): could not hydrolyze | increase of kcat/Km at pH 7.5 (VX-4 [5]; [8]): 2.6 fold | hydrolysis by rVX-3 (VX-3): could not hydrolyze | activity of E180A-containing VX-4 mutants against substrate [6]: lost activity

Cc1cc(=O)oc2cc(NC(=O)[C@H](CCCNC(=N)N)NC(=O)[C@H](Cc3ccccc3)NC(=O)OCc3ccccc3)ccc12 [Z-FR-MCA, benzyloxycarbonyl-L-phenylalanyl-L-arginine 4-methyl-coumaryl-7-amide] (Cbz-Phe-Arg-{AMC})
pH of maximal enzyme activity (VX-4 [4]): 5.5 | hydrolysis by rVX-2 (VX-2): could not hydrolyze | hydrolysis by rVX-4 (VX-4 [5]; pH 7.5): not hydrolyzed | hydrolysis by rVX-3 (VX-3): could not hydrolyze

CC(C)CC(=O)N[C@H](C(=O)N[C@H](C(=O)N[C@@H](CC(C)C)[C@@H](O)CC(=O)N[C@@H](C)C(=O)N[C@@H](CC(C)C)[C@@H](O)CC(=O)O)C(C)C)C(C)C [pepstatin A] (Isovaleryl-VV[Sta]A[Sta]-OH)
effect on autocatalytic processing of rPvPM4 [7]: completely blocked

— US9677063B2, “Use of a cysteine protease of plasmodium vivax” (SAMSUNG ELECTRONICS CO., LTD., priority 2009, dated 2017)
